Laboratory results reported in patent US8071641B2 (Yissum Research Development Company of the Hebrew …, priority 2004, dated 2011).
Where “and” joins values, the source holds several entries; their conditions need not be identical. Equal entries are not always repeated.

Assays:
islets of Langerhans = experiment: Histopathology of pancreatic islets (insulitis) in NOD mice; type: in vivo
Description: (§1) Mice injected with vehicle alone as well as untreated mice served as controls.
Histopathology: Twenty weeks after onset of treatment mice were sacrificed. Pancreatic tissue samples were fixed in 4% buffered formation, embedded in paraffin, sectioned (5 μm thickness) and stained with hematoxylin and eosin. The stained pancreatic sections were observed under a microscope for infiltration of mononuclear lymphocytes into the islets of Langerhans (insulitis). The sections were scored by two uninformed observers as follows: 0, no cell infiltration; 1, cell infiltration in <20% of islet area; 2, cell infiltration in <50% of islet area; cell infiltration in <75% of islet area; and 4, cell infiltration in 90-100% of islet area.

mice [1] = details: orally at doses of up to 10 mg/kg; cited from earlier work
INFγ = experiment: Plasma INFγ level in NOD mice by ELISA; type: in vivo; details: 5 mg/kg i.p., mean of 5 mice
Protocol: as §1
Plasma INFγ: INFγ is associated with the progression of diabetes in NOD mice (Schloot, N. C., Diabetes Metab. Res. Rev. 18:64, 2002; Weiss et al., Cytokine 19:85, 2002; Braz, J., Med. Biol. Res. 35: 1347, 2000).
Plasma INFγ levels in mice were determined by ELISA kit (B.D Bioscience San Diego U.S.A).

peripheral receptors CB2 = peripheral receptors CB2 (Homo sapiens, UniProt P34972); details: cited from earlier work
Chain of peripheral receptors CB2 (P34972 whole entry): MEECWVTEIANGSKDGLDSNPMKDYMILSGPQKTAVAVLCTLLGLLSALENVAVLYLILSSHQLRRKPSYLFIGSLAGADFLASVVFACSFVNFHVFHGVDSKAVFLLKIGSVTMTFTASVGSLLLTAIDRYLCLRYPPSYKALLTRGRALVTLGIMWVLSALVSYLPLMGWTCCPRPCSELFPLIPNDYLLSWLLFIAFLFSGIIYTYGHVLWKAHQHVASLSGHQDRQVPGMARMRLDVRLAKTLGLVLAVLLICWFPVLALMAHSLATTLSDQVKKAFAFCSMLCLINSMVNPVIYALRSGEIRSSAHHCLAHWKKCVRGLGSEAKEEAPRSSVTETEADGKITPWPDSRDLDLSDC

NOD mice = experiment: Spontaneous diabetes in NOD mice (glucosuria, IPGTT); type: in vivo
Description: Animals: Non-obese diabetic (NOD) mice develop spontaneous autoimmune diabetes and are commonly used as an experimental model for human insulin-dependent diabetes mellitus [Miazaki A., Clin. Exp. Immunol. 60:622 (1998); Harada, M., Exp. Clin. Endocrinol. 89: 251 (1987)].
Six to twelve week old NOD/Ltj female mice were fed standard laboratory animal chow ad libitum and were kept in Specific Pathogen Free (SPF) animal house facility.
as §1
Glucosuria analysis: The severity of diabetes was determined according to glucosuria, which was measured using Combi 9 Teststrips (Medi-Test, Macherey-Nagel, Duren, Germany).
Intraperitoneal glucose tolerance tests (IPGTT): Blood samples were obtained from the paraorbital plexus at 0 and 60 minutes after administration of an i.p. glucose injection at a dose of 1 g/kg body weight. Plasma glucose levels were determined using Glucose Analyzer 2 (Beckman Instruments). A glucose level above 15 mmol/liter at the 60 min time point was considered as a positive IPGTT.

mice [2] = details: topical administration; cited from earlier work
[3] = tested on: mouse peritoneal macrophages; details: macrophages activated by LPS and IFNγ; cited from earlier work
male NOD mice = experiment: Diabetes induced in male NOD mice by transfer of spleen cells from diabetic female mice; type: in vivo
Protocol: Experimental design—Male NOD mice were irradiated (650 cGy), 24 hrs prior to intravenous injection of spleen cells (25-28×10^6) derived from female diabetic mice.
Intraperitoneal glucose tolerance tests (IPGTT)—see Example 1 above. Blood glucose levels above 140 mg/dl were considered diabetic by testing blood glucose at t-0, 60 min following IP injection of 1 gr/Kg body weight of glucose [Glucometer Elite apparatus (Bayer Diagnostics, ELKART, IN)]. Alternatively, urine samples were taken twice a week from diabetic mice for testing glucose levels. Urine glucose levels above 1000 mg/dl as determined by combi 9 Teststrips (Medi-Test, Macherey-Nagel, Duren, Germany) were considered diabetic;

human leukocytes = details: cited from earlier work
[4] = 20 weeks after onset of treatment, of 54 scored fields
[5] = 5 mg/kg CBD, 20 IP injections, 5 times/week, of 15 mice
[6] = high concentrations (5-24 pg/ml)

C=C(C)[C@@H]1CCC(C)=C[C@H]1c1c(O)cc(CCCCC)cc1O [CBD, Cannabidiol]
islets showing destruction (islets of Langerhans; 1/54): 1.9%
islets showing total infiltration (islets of Langerhans; 6/54): 11%
protected islets (intact or only partially infiltrated) (islets of Langerhans; 20 week period, 47/54): 87%
No. of fully destroyed islets (islets of Langerhans; [4]): 1
No. of intact islets (islets of Langerhans; [4]): 26
No. of partially infiltrated islets (islets of Langerhans; [4]): 21
No. of totally infiltrated islets (islets of Langerhans; [4]): 6
only partially infiltrated pancreatic islets (islets of Langerhans; 21/54): 39%
intact pancreatic islets (islets of Langerhans; 26/54): 48%
PBQ-induced writhing (mice [1]): inhibited
INFγ (pg/ml) ± SD (INFγ): 43 pg/ml and 43 ± 21*^2 pg/ml
binding to peripheral receptors CB2 (peripheral receptors CB2): does not bind
onset of symptoms in the CBD-treated diabetic mice (NOD mice; compared to untreated and vehicle-treated controls): substantially delayed
rate of protection (NOD mice; compared with controls): greater than 65%
Diabetes appearance (weeks), mean and range of weeks of first positive diagnosis (NOD mice; female NOD mice, 5 mg/kg i.p.): 18.4 (15-22) weeks
Diabetes incidence (%) (NOD mice; female NOD mice, 5 mg/kg i.p., 5 injections per week, 10-23 injections): 21.7%
No. of diabetic mice (NOD mice; female NOD mice, 5 mg/kg i.p., 5 injections per week, 10-23 injections, of 23 mice): 5
TPA-induced erythema (mice [2]): reduce
nitric oxide (NO) produced [3]: inhibited
Total % of diabetic mice (male NOD mice; 5 mg/kg CBD, 20 IP injections, 5 times/week): 53%
No. of diabetic mice (urine glucose above 1000 mg/dl) (male NOD mice; [5]): 6
No. of mice w/ latent diabetes (blood glucose above 140 mg/dl 60 minutes following IP glucose injection) (male NOD mice; [5]): 2
suppression of the appearance of diabetes (male NOD mice; male NOD mice injected with splenocytes from diabetic female NOD mice): about half
IFNγ synthesis (human leukocytes; [6]): completely blocked
IL-1 production (human leukocytes; [6]): decreased
IL-2 secretion (human leukocytes; [6]): did not affect
TNFα production (human leukocytes; [6]): decreased
IFNγ production (human leukocytes; low concentrations): increased
